This is an account of results in patent US20260103471A1, “CYCLIC UREA THIAZOLYL COMPOUNDS FOR TREATMENT OF HSV” (Assembly Biosciences, Inc., priority 2022, published 2026).

As a reminder, the EC50 is the concentration needed to bring the measured effect to its halfway point. Low values mean higher potency in that assay, high ones lower potency in that assay.

The test system of the first assay is HSV-2 G strain. Put plainly: HSV-2 Antiviral Assay (Vero cells, cell viability). It counts as cell-based. The settings on record: Human alphaherpesvirus 2, Vero, 120 h, Vero cells, 160 TCID50 HSV-2 G strain, 5 days, cell viability. Here is the method: Vero cells were cultured in Dulbecco's Modified Eagle Medium (DMVEM) supplemented with […] and 100 units/mL penicillin and streptomycin. The cells were passaged 2-3 times per week to maintain sub-confluent densities.
Vero cells were seeded into 96-well plates at a density of 1.0×10^4 cells per well and allowed to attach overnight. Following attachment, the media was replaced with 50 μL of infection medium (DMEM supplemented with 2% fetal bovine serum and 100 units/mL penicillin and streptomycin). A Tecan D300e digital dispenser was then used to add compounds to the culture using an 8-point 3-fold serial dilution format. The DMSO concentration was normalized to 0.5% for all treatments. Following compound addition, 50 μL of infection medium containing 160 TCID50 HSV-2 G strain was added to the cells and incubated at 37° C. for 5 days. After the incubation, 10 μL/well of WST-8 chromogenic reagent was added and the plates incubated at 37° C. for 3 hours. Following the incubation, cell viability was quantified by measuring the absorbance at 460 nm and 620 nm using a Tecan Infinite M1000 Pro plate reader.
For the compound `Cc1nc(N2CCCCN(c3ccc(-c4cc(F)ccc4F)cc3)C2=O)sc1[S@@](C)(=N)=O` (single isomer, unassigned) [Compound 426], the half-maximal effective concentration (EC50) is < 0.1 µM.

Regarding `Cc1nc(N2C[C@@H](C(F)F)CN(c3ccc(-c4cc(F)ccc4F)cc3)C2=O)sc1S(N)(=O)=O` (single isomer, unassigned) [Compound 370], the half-maximal effective concentration (EC50) is < 0.1 µM.

Turning to `COCc1c(F)cc(F)cc1-c1ccc(N2CCCN(c3nc(C)c(S(N)(=O)=O)s3)C2=O)cc1` [Compound 221], the concentration for a half-maximal effect (EC50) was < 0.1 µM.

For `Cc1nc(N2CCCN(c3ccc(-c4snc5ccc(-c6ccccc6)cc45)cc3)C2=O)sc1S(N)(=O)=O` [Compound 309], the half-maximal effective concentration (EC50) is < 0.1 µM.

For the compound `Cc1nc(N2CC(C)CN(c3ccc(-c4ccccc4F)cc3)C2=O)sc1S(N)(=O)=O` (centres unmarked) [Compound 315], the half-maximal effective concentration (EC50) is < 0.1 µM.

With `Cc1nc(N2CCCN(c3ccc(-c4cc(F)ccc4F)cc3)C2=O)sc1S(=O)(=O)N1CC[C@H](N)C1` [Compound 398], the EC50 lay within 0.1 to 1 µM.

The compound `Cc1nc(N2C[C@@H](C(N)=O)CN(c3ccc(-c4cc(F)ccc4F)cc3)C2=O)sc1S(N)(=O)=O` (single isomer, unassigned) [Compound 383] displayed an EC50 of 0.1 to 1 µM.

Turning to `Cc1nc2cc(F)cc(-c3ccc(N4CCCN(c5nc(C)c(S(N)(=O)=O)s5)C4=O)cc3)c2s1` [Compound 256], the half-maximal effective concentration (EC50) was < 0.1 µM.

On to `COCCCCNS(=O)(=O)c1sc(N2CCCN(c3ccc(-c4cc(F)ccc4F)cc3)C2=O)nc1C` [Compound 390], for which the concentration for a half-maximal effect (EC50) is < 0.1 µM.

Consider `Cc1nc(N2CCCN(c3ccc(-c4nccn5cncc45)cc3)C2=O)sc1S(N)(=O)=O` [Compound 262], for which the EC50 fell in the range of 1 to 5 µM.

For the compound `Cc1nc(N2C[C@@H](F)CN(c3ccc(-c4cc(F)ccc4F)cc3)C2=O)sc1S(N)(=O)=O` (single isomer, unassigned) [Compound 365], the concentration giving a half-maximal response (EC50) was < 0.1 µM.

For `Cc1nc(N2CCC(C)N(c3ccc(-c4cc(F)ccc4F)cc3)C2=O)sc1S(N)(=O)=O` (centres unmarked) [Compound 332], the 50% effective concentration (EC50) was < 0.1 µM.

`Cc1nc(N2CCCN(c3ccc(-c4nccc(Cl)c4F)cc3)C2=O)sc1S(N)(=O)=O` [Compound 37] displayed an EC50 of 0.1 to 1 µM.

Consider `CO[C@@H]1CN(c2ccc(-c3cc(F)ccc3F)cc2)C(=O)N(c2nc(C)c(S(N)(=O)=O)s2)C1` (single isomer, unassigned) [Compound 358], for which the 50% effective concentration (EC50) is 1 to 5 µM.

Turning to `Cc1cccc(-c2ccc(N3CCCN(c4nc(C)c(S(N)(=O)=O)s4)C3=O)cc2)c1C` [Compound 195], the EC50 was < 0.1 µM.

`Cc1nc(N2CCCN(c3ccc(-c4cncc5ncsc45)cc3)C2=O)sc1S(N)(=O)=O` [Compound 269] had an EC50 of 0.1 to 1 µM.

For the compound `Cc1nc(N2CCCN(c3ccc(-c4cc(F)ccc4F)cc3)C2=O)sc1S(=O)(=O)Nc1ccccn1` [Compound 406], the half-maximal effective concentration (EC50) is < 0.1 µM.

For `Cc1nc(N2CC3(COC3)CN(c3ccc(-c4cc(F)ccn4)cc3)C2=O)sc1S(N)(=O)=O` [Compound 379], the concentration for a half-maximal effect (EC50) was < 0.1 µM.

Consider `Cc1nc(N2C(=O)N(c3ccc(-c4cc(F)ccc4F)cc3)CC[C@@H]2C)sc1S(N)(=O)=O` (single isomer, unassigned) [Compound 109], for which the half-maximal effective concentration (EC50) is < 0.1 µM.

On to `Cc1nc(N2CCCCN(c3ccc(-c4cc(F)cc5nsnc45)cc3)C2=O)sc1S(N)(=O)=O` [Compound 313], for which the concentration for a half-maximal effect (EC50) is < 0.1 µM.

Turning to `COc1c(F)cc(F)cc1-c1ccc(N2C[C@@H](C(F)(F)F)CN(c3nc(C)c(S(N)(=O)=O)s3)C2=O)cc1` (single isomer, unassigned) [Compound 373], the EC50 was < 0.1 µM.

Regarding `Cc1nc(N2CCCN(c3ccc(-c4ccccc4F)cc3)C2=O)sc1[S@@](C)(=N)=O` (single isomer, unassigned) [Compound 144], the EC50 was in the range of 0.1 to 1 µM.

As to `C#Cc1nc(N2CCCN(c3ccc(-c4cc(F)ccc4F)cc3)C2=O)sc1S(N)(=O)=O` [Compound 439], the half-maximal effective concentration (EC50) is < 0.1 µM.

Consider `Cc1nc(N2CCCN(c3ccc(-c4cc(C(F)(F)F)cc5nn(C)cc45)cc3)C2=O)sc1S(N)(=O)=O` [Compound 289], for which the EC50 fell in the range of 1 to 5 µM.

For `Cc1nc(N2CCCN(c3ccc(-c4ccc(F)cc4)cc3)C2=O)sc1S(N)(=O)=O` [Compound 189], the 50% effective concentration (EC50) fell in the range of 0.1 to 1 µM.

For `Cc1nc(N2CCCN(c3ccc(-c4cc(F)ccc4F)cc3)C2=O)sc1S(=O)(=O)N[C@@H]1CC[C@@H](O)C1` [Compound 400], the concentration giving a half-maximal response (EC50) is < 0.1 µM.

Compound `Cc1nc(N2CCCN(c3ccc(-c4cc(C#N)cc5ncsc45)cc3)C2=O)sc1S(N)(=O)=O` [Compound 278] came in with an EC50 of 0.1 to 1 µM.

As to `Cc1nc(N2CCCN(c3ccc(-c4cc(F)cc5nc(C6CC6)sc45)cc3)C2=O)sc1S(N)(=O)=O` [Compound 253], the concentration giving a half-maximal response (EC50) is < 0.1 µM.

Take `Cc1nc(N2CC[C@H](C)N(c3ccc(-c4cc(F)ccc4F)cc3)C2=O)sc1S(N)(=O)=O` (single isomer, unassigned) [Compound 334]: the EC50 was < 0.1 µM.

Compound `Cc1nc(N2CCCN(c3ccc(-c4cc(F)cc5c4c(C#N)cn5C)cc3)C2=O)sc1S(N)(=O)=O` [Compound 294] came in with a concentration giving a half-maximal response (EC50) of 0.1 to 1 µM.

As to `Cc1nc(N2C[C@@H](O)CN(c3ccc(-c4cc(F)ccc4F)cc3)C2=O)sc1S(N)(=O)=O` (single isomer, unassigned) [Compound 355], the concentration giving a half-maximal response (EC50) is < 0.1 µM.

In the case of `Cc1nc(N2CC(C)CN(c3ccc(-c4ccccc4)cc3)C2=O)sc1S(N)(=O)=O` (centres unmarked) [Compound 326], the EC50 was < 0.1 µM.

`COc1ccc(-c2ccc(N3CCCN(c4nc(C)c(S(N)(=O)=O)s4)C3=O)cc2)c2cnn(C)c12` [Compound 58]: the half-maximal effective concentration (EC50) was < 0.1 µM.

`Cc1nc(N2CCCN(c3ccc(-c4cc(C(C)(C)C)ccc4F)cc3)C2=O)sc1S(N)(=O)=O` [Compound 204] yielded an EC50 of 1 to 5 µM.

For the compound `Cc1nc(N2CC(F)CN(c3ccc(-c4cc(F)ccc4F)cc3)C2=O)sc1S(=O)(=O)NCCO` (centres unmarked) [Compound 413], the concentration for a half-maximal effect (EC50) is < 0.1 µM.

On to `Cc1nc(N2C(=O)N(c3ccc(-c4cc(F)ccc4F)cc3)CCC2C)sc1S(N)(=O)=O` (centres unmarked) [Compound 107, 2-(3-(2′,5′-Difluoro-[1,1′-biphenyl]-4-yl)-6-methyl-2-oxotetrahydropyrimidin-1(2H)-yl)-4-methylthiazole-5-sulfonamide], for which the concentration giving a half-maximal response (EC50) was < 0.1 µM.

In the case of `Cc1nc(N2CCCN(c3ccc(-c4cc(F)cc(/C=C/C#N)c4)cc3)C2=O)sc1S(N)(=O)=O` [Compound 192], the EC50 is < 0.1 µM.

Consider `Cc1nc(N2C[C@@H](C)CN(c3ccc(-c4cc(F)ccc4F)cc3)C2=O)sc1S(N)(=O)=O` (single isomer, unassigned) [Compound 320], for which the EC50 was < 0.1 µM.

In turn, `Cc1nc(N2CCCN(c3ccc(-c4ncccc4C(F)(F)F)cc3)C2=O)sc1S(N)(=O)=O` [Compound 232] yielded an EC50 of 0.1 to 1 µM.

For the compound `Cc1nc(N2CCCN(c3ccc(-c4cccc(S(C)(=O)=O)c4)cc3)C2=O)sc1S(N)(=O)=O` [Compound 201], the EC50 lay in the range of 1 to 5 µM.

`Cc1nc(N2CCCN(c3ccc(-c4cc(Cl)ccc4F)cc3)C2=O)sc1S(N)(=O)=O` [Compound 27]: the 50% effective concentration (EC50) is < 0.1 µM.

As for `Cc1nc(N2CCCN(c3ccc(-c4cc(F)ccc4F)cc3)C2=O)sc1S(=O)(=O)NCCC(C)(C)O` [Compound 393], the concentration giving a half-maximal response (EC50) is < 0.1 µM.

As to `Cc1nc(N2CCCN(c3ccc(-c4cc(F)cc(C(F)F)c4F)cc3)C2=O)sc1S(N)(=O)=O` [Compound 217], the EC50 was < 0.1 µM.

As to `COc1ncc(F)cc1-c1ccc(N2CCCN(c3nc(C)c(S(N)(=O)=O)s3)C2=O)cc1` [Compound 239], the EC50 was < 0.1 µM.

In the case of `Cc1nc(N2C[C@H](C(C)(C)F)CN(c3ccc(-c4cc(F)ccc4F)cc3)C2=O)sc1S(N)(=O)=O` (single isomer, unassigned) [Compound 352], the EC50 was < 0.1 µM.

With `CSc1ccc(F)cc1-c1ccc(N2CCCN(c3nc(C)c(S(N)(=O)=O)s3)C2=O)cc1` [Compound 223], the EC50 was < 0.1 µM.

Compound `Cc1nc(N2CCCN(c3ccc(-c4ccnc5ncsc45)cc3)C2=O)sc1S(N)(=O)=O` [Compound 272] came in with an EC50 of 1 to 5 µM.

As to `CNS(=O)(=O)c1sc(N2CCCN(c3ccc(-c4cccc5cc(N)ncc45)cc3)C2=O)nc1C` [Compound 411], the EC50 was < 0.1 µM.

In the case of `Cc1nc(N2C[C@H](F)CN(c3ccc(-c4cc(F)ccc4F)cc3)C2=O)sc1S(=O)(=O)NCCO` (single isomer, unassigned) [Compound 414], the 50% effective concentration (EC50) was < 0.1 µM.

Consider `Cc1nc(N2CCCN(c3ccc(-c4cc(C5(C#N)CC5)ccc4F)cc3)C2=O)sc1S(N)(=O)=O` [Compound 208], for which the EC50 is < 0.1 µM.

With `Cc1nc(N2CCCN(c3ccc(-c4nc(C#N)cs4)cc3)C2=O)sc1S(N)(=O)=O` [Compound 48], the EC50 is < 0.1 µM.

Turning to `COc1cc(-c2ccc(N3CCCN(c4nc(C)c(S(N)(=O)=O)s4)C3=O)cc2)c2ccn(C)c2c1` [Compound 301], the concentration giving a half-maximal response (EC50) was < 0.1 µM.

As for `Cc1nc(N2CCCN(c3ccc(-c4cc(C(F)F)ccc4F)cc3)C2=O)sc1S(N)(=O)=O` [Compound 206], the EC50 is < 0.1 µM.

As to `Cc1nc(N2CCCN(c3ccc(-c4ccc(C#N)c5nsnc45)cc3)C2=O)sc1S(N)(=O)=O` [Compound 286], the EC50 fell in the range of 1 to 5 µM.

For the compound `CCC[S@](=N)(=O)c1sc(N2CCCN(c3ccc(-c4cc(F)cc(F)c4F)cc3)C2=O)nc1C` (single isomer, unassigned) [Compound 425], the EC50 is < 0.1 µM.

Still in this assay, the particulars now being: Vero cells, 160 TCID50 HSV-2 G strain, 5 days, cell viability.
`Cc1nc(N2C[C@@H](C#N)CN(c3ccc(-c4cc(F)ccc4F)cc3)C2=O)sc1S(N)(=O)=O` (single isomer, unassigned) [Compound 377]: the concentration giving a half-maximal response (EC50) was < 0.1 µM.
